In patent publication US20200031811A1, “SUBSTITUTED MONO- AND POLYAZANAPHTHALENE DERIVATIVES AND THEIR USE” (Basilea Pharmaceutica International AG, priority 2015, published 2020):

Columns and labels:
MNK1 = biological target: T1, MNK1 (Homo sapiens, UniProt Q9BUB5); experiment: MNK inhibition assay (Z-Lyte kinase assay, Ser/Thr 7 peptide); type: biochemical; details: for IC50: recombinant GST-MNK1, 3 hours at 31° C.
T1 construct: purchased Life Technologies or Carna Biosciences PV6023 or 02-145; host or cells: baculovirus infected insect cells
T1 sequence (Q9BUB5 whole entry): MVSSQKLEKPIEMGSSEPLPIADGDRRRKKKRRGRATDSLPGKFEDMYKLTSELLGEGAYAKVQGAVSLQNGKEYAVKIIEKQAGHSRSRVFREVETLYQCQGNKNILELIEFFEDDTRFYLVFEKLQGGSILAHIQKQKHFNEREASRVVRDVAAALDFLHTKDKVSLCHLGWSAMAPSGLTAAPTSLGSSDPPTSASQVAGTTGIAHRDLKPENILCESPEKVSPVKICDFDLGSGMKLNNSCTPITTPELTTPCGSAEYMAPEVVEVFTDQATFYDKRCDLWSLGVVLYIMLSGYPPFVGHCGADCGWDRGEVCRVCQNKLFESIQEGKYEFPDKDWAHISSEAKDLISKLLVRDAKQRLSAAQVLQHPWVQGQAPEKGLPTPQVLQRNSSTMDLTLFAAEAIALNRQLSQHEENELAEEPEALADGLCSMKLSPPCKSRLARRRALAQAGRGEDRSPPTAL
Outline: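 Recombinant GST-MNK1 from baculovirus-infected insect cells, Z-Lyte Ser/Thr 7 peptide, enzyme set for ~30% phosphorylation in buffer-only wells; 3 hours at 31° C. Compounds at 50–10000 nM (potent ones down to 0.5 nM), at least duplicate. IC50 from % substrate phosphorylation versus buffer-only wells, fluorescence read-out.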

[1] = tested on: human pancreatic cancer cell line MiaPaCa2 (ATCC CRL-1420); experiment: Cell growth assay (CellTiterGlo, 72 hours); type: cell-based; details: for IC50: MIA PaCa-2, MiaPaCa2 cells, 72 hours, read-out: IC50 MiaPaCa; for inhibition at 100 µM: MIA PaCa-2, at 100 μM; for inhibition at 100 µM / inhibition at 50 µM: read-out: Inhibition of MiaPaCa growth at indicated concentration; for inhibition at 50 µM: MIA PaCa-2, at 50 μM
Outline: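 MiaPaCa2 cells (10^3/well) seeded in supplemented DMEM overnight, then exposed in quadruplicate to compound at 100 down to 0.1 μM for 72 h at 37° C. Growth read by CellTiterGlo luminescence, medium-only background subtracted, normalised to untreated cells; IC50 = concentration reducing growth to 50%.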

[2] = read-out: Inhibition of MNK1 activity at indicated concentration

Row | SMILES | IC50 (MNK1) [µM] | IC50 [1] [µM] | also measured
1 | Nc1cc[n+](Cc2ccc3cncc(-c4cc5ccccc5o4)c3c2)cc1O [Example 59] | 0.09 | 47 | –
2 | Nc1cc[n+](Cc2ccc3cncc(-c4cc5ccccc5o4)c3c2)c2ccccc12 [Example 54, 1-[[4-(Benzofuran-2-yl)-6-isoquinolyl]methyl]quinolin-1-ium-4-amine] | 0.015 | 2.85 | –
3 | Cn1nccc1NCc1ccc2cncc(-c3cc4ccccc4o3)c2c1 [Example 101] | 0.18 | 18.9 | –
4 | FC(F)(F)c1cnccc1NCc1ccc2cncc(-c3cc4ccccc4o3)c2c1 [Example 77] | 1.13 | 10 | –
5 | Nc1cc[n+](Cc2ccc3cncc(-c4cc5ccccc5o4)c3c2)cc1C(F)(F)F [Example 58] | 0.05 | 13.6 | –
6 | Nc1ncc(-c2ccc(F)cc2)c2cc(CN3CCC(N)CC3)ccc12 [Example 219] | 1.02 | 5.31 | –
7 | Nc1ccc[n+](Cc2ccc3cncc(-c4cc5ccccc5o4)c3c2)c1 [Example 56] | 0.143 | – | inhibition at 100 µM [1]: 85%
8 | Nc1ccc(-c2cncc3ccc(CN4CCC(N)CC4)cc23)cn1 [Example 17] | – | – | inhibition at 10 µM (MNK1; [2]): 100%; inhibition at 50 µM [1]: 61%
9 | NC1CCN(Cc2ccc3cncc(-c4cccc(NC(=O)Nc5ccccc5)c4)c3c2)CC1 [Example 32] | 2.41 | 8.4 | –
10 | NC1CCC(NCc2ccc3cncc(-c4ccc(O)cc4)c3c2)CC1 (stereo not drawn) [Example 37] | 0.336 | – | inhibition at 50 µM [1]: 57%
11 | Nc1cc[n+](Cc2ccc3cncc(-c4cc5ccccc5o4)c3c2)nc1 [Example 127] | 0.021 | 8.48 | –
12 | O=[N+]([O-])c1cnccc1NCc1ccc2cncc(-c3cc4ccccc4o3)c2c1 [Example 75, N-[[4-(Benzofuran-2-yl)-6-isoquinolyl]methyl]-3-nitro-pyridin-4-amine] | 2.13 | 18 | –
13 | NCCCCNCc1ccc2cncc(-c3ccc(O)cc3)c2c1 [Example 35, 4-[6-[(4-Aminobutylamino)methyl]-4-isoquinolyl]phenol] | – | 11.8 | inhibition at 1 µM (MNK1; at 1 μM, read-out: Inhibition of MNK1 activity at indicated concentration): 56%
14 | NC1CCN(Cc2ccc3cncc(-c4ccc5ccncc5c4)c3c2)CC1 [Example 194] | 0.797 | 16.3 | –
15 | NC1CCN(Cc2ccc3cncc(-c4ccc(Cl)c(Cl)c4)c3c2)CC1 [Example 200] | 0.245 | 16.4 | –
16 | NCc1ccc(Nc2ccc3cncc(-c4cc5ccccc5o4)c3c2)cc1 [Example 133] | 0.152 | 11.5 | –
17 | c1ccc2oc(-c3cncc4ccc(Cn5ccc6cnccc65)cc34)cc2c1 [Example 189, 4-(Benzofuran-2-yl)-6-(pyrrolo[3,2-c]pyridin-1-ylmethyl)isoquinoline] | 0.011 | 8.39 | –
18 | Nc1cccc(-c2cncc3ccc(CN4CCC(N)CC4)cc23)c1 [Example 3] | 0.847 | 20.6 | –
19 | NC1CCN(Cc2ccc3cncc(-c4ccc(NC(=O)Nc5ccccn5)cc4)c3c2)CC1 [Example 119] | 0.388 | 2.56 | –
20 | Clc1cnccc1NCc1ccc2cncc(-c3cc4ccccc4o3)c2c1 [Example 71] | 0.128 | 10.3 | –
21 | COc1cc2cncc(-c3cc4ccccc4o3)c2cc1N[C@H]1CC[C@H](N)CC1 [Example 141, N4-[4-(Benzofuran-2-yl)-7-methoxy-6-isoquinolyl]cyclohexane-1,4-diamine] | 0.187 | 2.26 | –
22 | Nc1cc[n+](Cc2ccc3cncc(-c4cc5ccccc5o4)c3c2)cc1 [Example 55] | 0.014 | 1.83 | –
23 | c1ccc2oc(-c3cncc4ccc(Nc5ccncc5)cc34)cc2c1 [Example 139, 4-(Benzofuran-2-yl)-N-(4-pyridyl)isoquinolin-6-amine] | 0.903 | 10.4 | –
24 | NC1CCN(Cc2ccc3cncc(-c4cccs4)c3c2)CC1 [Example 178] | 0.154 | 4.98 | –
25 | c1ccc2oc(-c3cncc4ccc(Cn5ccc6ccncc65)cc34)cc2c1 [Example 191, 4-(Benzofuran-2-yl)-6-(pryrrolo[2,3-c]pyridin-1-ylmethyl)isoquinoline] | 0.437 | 19 | –
26 | NCCCNC(=O)c1ccc2cncc(-c3cc4ccccc4o3)c2n1 [Example 103, N-(3-aminopropyl)-8-(benzofuran-2-yl)-1,6-naphthyridine-2-carboxamide] | 0.088 | 4.12 | –
27 | NC1CCN(Cc2ccc3cncc(-c4cccc(Cl)c4)c3c2)CC1 [Example 10] | 0.325 | 11.7 | –

Continued, in another order:

Row | IC50 (MNK1) [µM] | IC50 [1] [µM] | SMILES | also measured
28 | 0.351 | 5.03 | Nc1ncc(-c2ccc(F)c(F)c2)c2cc(CN3CCC(N)CC3)ccc12 [Example 221] | –
29 | 0.211 | 3.2 | COc1cc(O[C@H]2CC[C@H](N)CC2)cc2c(-c3cc4ccccc4o3)cnc(N)c12 [Example 323, trans-6-(4-Aminocyclohexoxy)-4-(benzofuran-2-yl)-8-methoxy-isoquinolin-1-amine] | –
30 | 0.147 | 10 | NC1CCN(Cc2cc3c(-c4cc5ccccc5o4)cncc3c(F)c2F)CC1 [Example 248] | –
31 | 0.237 | – | NC1CCN(Cc2ccc3cncc(-c4ccccc4)c3n2)CC1 [Example 299, 1-[(8-Phenyl-1,6-naphthyridin-2-yl)methyl]piperidin-4-amine] | inhibition at 100 µM [1]: 85%
32 | 0.028 | 2.34 | N[C@H]1CC[C@H](Nc2cc(Cl)c3cncc(-c4ccccc4)c3c2)CC1 [Example 308] | –
33 | 0.308 | 20.5 | NC1CCN(Cc2cc([N+](=O)[O-])c3cncc(-c4cc5ccccc5o4)c3c2)CC1 [Example 252, 1-[[4-(Benzofuran-2-yl)-8-nitro-6-isoquinolyl]methyl]piperidin-4-amine] | –
34 | 0.024 | 3.33 | COc1cc(CN2CCC(N)CC2)cc2c(-c3cccs3)cncc12 [Example 245] | –
35 | – | 3.24 | N[C@H]1CC[C@@H](CNc2ccc3cncc(-c4cc5ccccc5o4)c3c2)CC1 [Example 231] | inhibition at 10 µM (MNK1; [2]): 54%
36 | 0.149 | 3.57 | COc1cc(CN2CCC(N)CC2)cc2c(-c3cc4ccccc4o3)cnc(N)c12 [Example 258, 6-[(4-Amino-1-piperidyl)methyl]-4-(benzofuran-2-yl)-8-methoxy-isoquinolin-1-amine] | –
37 | 0.288 | 4.29 | CO[C@@H]1CN(Cc2ccc3cncc(-c4cc5ccccc5o4)c3c2)CC[C@H]1N [Example 271] | –
38 | 0.579 | 4.4 | NC1CCN(Cc2cc(Cl)c3cncc(-c4cc5ccccc5o4)c3c2)CC1 [Example 236, 1-[[4-(Benzofuran-2-yl)-8-chloro-6-isoquinolyl]methyl]piperidin-4-amine] | –
39 | 2.19 | 6.02 | N[C@H]1CC[C@H](CNc2ccc3cncc(-c4cc5ccccc5o4)c3c2)CC1 [Example 230, trans-N-[(4-Aminocyclohexyl)methyl]-4-(benzofuran-2-yl) isoquinolin-6-amine] | –
40 | 0.055 | 4.55 | NC1CCN(Cc2cc3c(-c4ccccc4)cncc3cc2Cl)CC1 [Example 251, 1-[(7-Chloro-4-phenyl-6-isoquinolyl)methyl]piperidin-4-amine] | –
41 | 1.3 | 28 | O=C(c1ccc2cncc(-c3cc4ccccc4o3)c2n1)N1CCNCC1 [Example 305] | –
42 | 0.161 | 15.5 | NC1CCN(Cc2ccc3cncc(-c4cc5ncccc5o4)c3c2)CC1 [Example 276] | –
